“Also recorded” adds a separate entry of the source.
Tested on: Chronic mild stress model in rats
Experiment: Chronic mild stress model in rats, serum marker analysis
Details: for Apo A1 (Apolipoprotein A1), median value: serum 24 hrs after last drug injection; for reversal of chronic mild stress induced changes in serum inflammatory markers / cytokine levels: rats exposed to chronic mild stress, compared with non-stressed controls
Source text: The biochemical changes induced in the animals studied in the stress models lead to increases in inflammatory mediators/markers.
At the end of the present study, terminal serum samples were collected for marker analysis to evaluate the effects of stress with and without drug on the levels of about 60 blood markers.
Serum samples were withdrawn from the tail, without stunning, during the daytime (09:00-17:00) 24 hrs after the last drug injection. Blood was collected into BD vacutainers containing clot activator and gel for serum preparation, inverted 5 times and maintained on ice until centrifugation at 3000 rpm for 10 min at 4° C. Serum was decanted, placed on ice, and at the end of the day stored at −80° C.

## Oc1noc2c1CCNC2 [GBX, 4,5,6,7-tetrahydroisoxazolo[5,4-c]pyridine-3-ol]
1st study, 5 mg/kg, serum
  CRP (C Reactive Protein), median value: 1140.00 µg/mL
  Cystatin-C, median value: 1165.00 ng/mL
  FGF-9 (Fibroblast Growth Factor-9), median value: 0.59 ng/mL
  GCP-2 (Granulocyte Chemotactic Protein-2), median value: 0.19 ng/mL
  Growth Hormone, median value: 7.67 ng/mL
  IL-1alpha (Interleukin-1alpha), median value: 11.30 pg/mL
  IL-2 (Interleukin-2), median value: 31.30 pg/mL
  IL-4 (Interleukin-4), median value: 29.60 pg/mL
  IL-7 (Interleukin-7), median value: 0.16 ng/mL
  IL-10 (Interleukin-10), median value: 249.00 pg/mL
  IL-11 (Interleukin-11), median value: 128.00 pg/mL
  IL-18 (Interleukin-18), median value: 0.07 ng/mL
  IP-10 (Inducible Protein-10), median value: 138.00 pg/mL
  IgA (Immunoglobulin A), median value: 5.91 µg/mL
  Insulin, median value: 8.88 uIU/mL
  LIF (Leukemia Inhibitory Factor), median value: 53.90 pg/mL
  Leptin, median value: 2.59 ng/mL
  Lymphotactin, median value: 53.80 pg/mL
  M-CSF (Macrophage-Colony Stimulating Factor), median value: 865.00 ng/mL
  MCP-1 (Monocyte Chemoattractant Protein-1), median value: 1185.00 pg/mL
  MCP-3 (Monocyte Chemoattractant Protein-3), median value: 655.00 pg/mL
  MCP-5 (Monocyte Chemoattractant Protein-5), median value: 0.77 pg/mL
  MIP-1alpha (Macrophage Inflammatory Protein-1alpha), median value: 173.00 ng/mL
  MIP-1gamma (Macrophage Inflammatory Protein-1gamma), median value: 7.95 ng/mL
  MIP-2 (Macrophage Inflammatory Protein-2), median value: 0.08 pg/mL
  MPO (Myeloperoxidase), median value: 20.80 ng/mL
  NGAL (Lipocalin-2), median value: 0.17 ng/mL
  Osteopontin, median value: 396.00 ng/mL
  SAP (Serum Amyloid P), median value: 133.00 µg/mL
  SCF (Stem Cell Factor), median value: 14.85 pg/mL
  SGOT (Serum Glutamic-Oxaloacetic Transaminase), median value: 0.21 µg/mL
  TIMP-1 (Tissue Inhibitor of Metalloproteinase Type-1), median value: 0.16 ng/mL
  TPO (Thrombopoietin), median value: 147.00 ng/mL
  Tissue Factor, median value: 0.10 ng/mL
  VCAM-1 (Vascular Cell Adhesion Molecule-1), median value: 361.00 ng/mL
  VEGF (Vascular Endothelial Cell Growth Factor), median value: 81.00 pg/mL
1st study, 5 mg/kg
  Apo A1 (Apolipoprotein A1), median value: 8.20 µg/mL
2nd study, 10 mg/kg, serum
  Beta-2 Microglobulin, median value: 38.00 µg/mL
  CRP (C Reactive Protein), median value: 1030.00 µg/mL
  Clusterin, median value: 108.00 µg/mL
  Cystatin-C, median value: 696.00 ng/mL
  Eotaxin, median value: 1072.00 pg/mL
  FGF-9 (Fibroblast Growth Factor-9), median value: 1.70 ng/mL
  Factor VII, median value: 0.30 ng/mL
  GCP-2 (Granulocyte Chemotactic Protein-2), median value: 0.29 ng/mL
  GST-Mu, median value: 1190.00 ng/mL
  Growth Hormone, median value: 3.10 ng/mL
  IL-1beta (Interleukin-1beta), median value: 0.56 ng/mL
  IL-2 (Interleukin-2), median value: 22.00 pg/mL
  IL-5 (Interleukin-5), median value: 0.24 ng/mL
  IL-7 (Interleukin-7), median value: 0.06 ng/mL
  IL-10 (Interleukin-10), median value: 362.00 pg/mL
  IL-18 (Interleukin-18), median value: 0.43 ng/mL
  IP-10 (Inducible Protein-10), median value: 41.00 pg/mL
  IgA (Immunoglobulin A), median value: 4.30 µg/mL
  Insulin, median value: 14.50 uIU/mL
  LIF (Leukemia Inhibitory Factor), median value: 67.00 pg/mL
  Leptin, median value: 1.35 ng/mL
  Lymphotactin, median value: 63.00 pg/mL
  M-CSF (Macrophage-Colony Stimulating Factor), median value: 1400.00 ng/mL
  MCP-1 (Monocyte Chemoattractant Protein-1), median value: 1020.00 pg/mL
  MCP-3 (Monocyte Chemoattractant Protein-3), median value: 659.00 pg/mL
  MCP-5 (Monocyte Chemoattractant Protein-5), median value: 0.72 pg/mL
  MDC (Macrophage-Derived Chemokine), median value: 0.12 pg/mL
  MIP-1alpha (Macrophage Inflammatory Protein-1alpha), median value: 127.00 ng/mL
  MIP-1beta (Macrophage Inflammatory Protein-1beta), median value: 0.01 pg/mL
  MIP-1gamma (Macrophage Inflammatory Protein-1gamma), median value: 19.00 ng/mL
  MIP-2 (Macrophage Inflammatory Protein-2), median value: 0.22 pg/mL
  MIP-3beta (Macrophage Inflammatory Protein-3beta), median value: 29.70 ng/mL
  MPO (Myeloperoxidase), median value: 533.00 ng/mL
  Myoglobin, median value: 520.00 ng/mL
  NGAL (Lipocalin-2), median value: 0.15 ng/mL
  OSM (Oncostatin M), median value: 19.10 ng/mL
  Osteopontin, median value: 255.00 ng/mL
  RANTES (Regulation Upon Activation, Normal T-Cell Expressed and Secreted), median value: 10.60 pg/mL
  SAP (Serum Amyloid P), median value: 403.00 µg/mL
  SCF (Stem Cell Factor), median value: 11.30 pg/mL
  SGOT (Serum Glutamic-Oxaloacetic Transaminase), median value: 8.53 µg/mL
  TIMP-1 (Tissue Inhibitor of Metalloproteinase Type-1), median value: 0.24 ng/mL
  TNF-alpha (Tumor Necrosis Factor-alpha), median value: 4.45 ng/mL
  TPO (Thrombopoietin), median value: 119.00 ng/mL
  Tissue Factor, median value: 0.06 ng/mL
  VCAM-1 (Vascular Cell Adhesion Molecule-1), median value: 353.00 ng/mL
  VEGF (Vascular Endothelial Cell Growth Factor), median value: 78.00 pg/mL
2nd study, 10 mg/kg
  Apo A1 (Apolipoprotein A1), median value: 6.20 µg/mL
Listed as gaboxadol
  reversal of chronic mild stress induced changes in serum inflammatory markers / cytokine levels: dose dependently was able to reverse most of the chronic mild stress induced changes in cytokine levels; also recorded: significantly reversed the stress-induced alterations in serum markers toward levels found in non-stressed controls; also recorded: dose dependently is able to reverse or partially reverse changes at most in inflammatory parameters induced by chronic mild stress

## CN(C)CCC[C@@]1(c2ccc(F)cc2)OCc2cc(C#N)ccc21 [ESC, escitalopram, reference compound]
1st study, 5 mg/kg, serum
  CRP (C Reactive Protein), median value: 1060.00 µg/mL
  Eotaxin, median value: 1300.00 pg/mL
  FGF-9 (Fibroblast Growth Factor-9), median value: 0.90 ng/mL
  GCP-2 (Granulocyte Chemotactic Protein-2), median value: 0.21 ng/mL
  Growth Hormone, median value: 1.38 ng/mL
  IL-1alpha (Interleukin-1alpha), median value: 15.40 pg/mL
  IL-2 (Interleukin-2), median value: 38.80 pg/mL
  IL-4 (Interleukin-4), median value: 51.70 pg/mL
  IL-7 (Interleukin-7), median value: 0.22 ng/mL
  IL-10 (Interleukin-10), median value: 317.00 pg/mL
  IL-11 (Interleukin-11), median value: 166.00 pg/mL
  IP-10 (Inducible Protein-10), median value: 194.00 pg/mL
  IgA (Immunoglobulin A), median value: 6.54 µg/mL
  Insulin, median value: 11.30 uIU/mL
  LIF (Leukemia Inhibitory Factor), median value: 67.20 pg/mL
  Leptin, median value: 2.62 ng/mL
  Lymphotactin, median value: 68.00 pg/mL
  M-CSF (Macrophage-Colony Stimulating Factor), median value: 941.00 ng/mL
  MCP-1 (Monocyte Chemoattractant Protein-1), median value: 1500.00 pg/mL
  MCP-3 (Monocyte Chemoattractant Protein-3), median value: 885.00 pg/mL
  MCP-5 (Monocyte Chemoattractant Protein-5), median value: 0.87 pg/mL
  MIP-1alpha (Macrophage Inflammatory Protein-1alpha), median value: 244.00 ng/mL
  MIP-1gamma (Macrophage Inflammatory Protein-1gamma), median value: 11.50 ng/mL
  MIP-2 (Macrophage Inflammatory Protein-2), median value: 0.09 pg/mL
  MPO (Myeloperoxidase), median value: 54.60 ng/mL
  NGAL (Lipocalin-2), median value: 0.22 ng/mL
  Osteopontin, median value: 310.00 ng/mL
  SAP (Serum Amyloid P), median value: 178.00 µg/mL
  SCF (Stem Cell Factor), median value: 16.95 pg/mL
  SGOT (Serum Glutamic-Oxaloacetic Transaminase), median value: 0.31 µg/mL
  TIMP-1 (Tissue Inhibitor of Metalloproteinase Type-1), median value: 0.22 ng/mL
  TPO (Thrombopoietin), median value: 142.00 ng/mL
  Tissue Factor, median value: 0.15 ng/mL
  VCAM-1 (Vascular Cell Adhesion Molecule-1), median value: 409.00 ng/mL
  VEGF (Vascular Endothelial Cell Growth Factor), median value: 106.00 pg/mL
1st study, 5 mg/kg
  Apo A1 (Apolipoprotein A1), median value: 8.40 µg/mL
  reversal of chronic mild stress induced changes in serum inflammatory markers / cytokine levels: inactive at most of these changes

Reference: patent publication US20090048288A1, “METHOD OF TREATING STRESS-MEDIATED DEPRESSION” (H. Lundbeck A/S, priority 2007, published 2009)
